In US20100035993A1, “METHODS AND COMPOSITIONS COMPRISING 2-[(3-CHLOROPHENYL) AMINO] PHENYLACETIC ACID FOR HYPERPERMEABILITY AND NEOVASCULARIZATION DISORDERS OF THE RETINA” (priority 2008, published 2010):

Tests used:
PEDF = PEDF in vitreous of streptozotocin-diabetic rats, immunoassay; type: in vivo, rat; settings: vitreous of male streptozotocin-diabetic rats treated for 26 weeks with 15 mg/kg/day by gavage; Normal Control 15.3, Diabetic Control 4.6
Experimental: (§1) Vitreous was harvested from male rats that were rendered diabetic by intravenous injection of streptozotocin and that were treated for 26 weeks with 23CPPA (15 mg/kg/day) administered by gavage, and from age and gender matched diabetic and nondiabetic control rats. PEDF and VEGF were measured by immunoassay. The relative ratio of VEGF to PEDF in diabetic control rats and diabetic rats treated with 23CPPA was compared to that in nondiabetic control rats which was assigned an arbitrary value of 1.0.

VEGF = VEGF in vitreous of streptozotocin-diabetic rats, immunoassay; type: in vivo, rat; settings: vitreous of male streptozotocin-diabetic rats treated for 26 weeks with 15 mg/kg/day by gavage; Normal Control 75, Diabetic Control 167
Experimental: as §1

O=C(O)Cc1ccccc1Nc1cccc(Cl)c1 [23CPPA, 2-[(3-chlorophenyl)amino]phenylacetic acid]
PEDF (PEDF): 8.7 ng/mL
VEGF (VEGF): 105 pg/mL
